Reference: patent publication US20170224840A1, “Drug Delivery System Comprising A Cancer Stem Cell-Targeted Carbon Nanotube, Preparation and Use Thereof” (Institute of Pharmacology and Toxicology Academy of …, priority 2014, published 2017)

Tests used:
[1] = tested on: gastric cancer stem cell spheres; assay: Penetration of stem cell spheres by laser confocal microscopy; type: cell-based, human; details: FITC 5 uM, 12 hours
Experimental: (§1) CD44+ cell suspension was inoculated to a low-absorption 24-well plate in an amount of 5×10^4/well, and subjected to suspension culture with DMEM/F12 medium (1% N2, 2% B27, 10 ng/mL bFGF, 20 ng/mL EGF), incubated in a 5% CO2 incubator at 37° C. for 6 days. Medium was replaced every three days. The stem cell spheres with diameter of more than 200 μm were transferred to a 96-well culture plate, one sphere per well.
Free FITC, FITC-SWNTs-CHI or FITC-SWNTs-CHI-HA were separately added to the wells of a 96-well plate containing stem cell spheres, and the concentration of FITC in the above preparations was 5 uM. After the addition, the 96-well plate was placed in a 37° C., 5% CO2 incubator to continue the culture for 12 hours; then the stem cell spheres were transferred to a glass-bottom dish, 5 stem cell spheres in each group, washed three times with fresh culture medium, and then 100 μl of fresh culture medium was added in each dish; for each stem cell sphere, it was light-cut into layers from the top to the center of the sphere at 10 μm intervals, and FITC fluorescence intensities of different layers were studied.

CD44+ cells [2] = assay: Apoptosis by Annexin V-FITC / propidium iodide flow cytometry; type: cell-based, human; details: drug concentration 5.0 μM, 12 h
Experimental: Flow cytometry was used to detect the apoptosis of gastric cancer stein cells via double-staining method with Annexin V-FITC and propidium iodide (PI), so as to observe the activities of various salinomycin dosage forms in induction of apoptosis of gastric cancer stem cells. CD44+ cells were seeded in a 6-well cell culture plate in an amount of 5×10^5 cells/well (2 ml), and incubated at 37° C. in a 5% CO2 cell incubator for 24 h; and separately added with PBS (pH 7.4, 0.1 M), blank SWNTs-CHI-HA, free salinomycin, SAL-SWNTs-CHI or SAL-SWNTs-CHI-HA (drug concentration: 5.0 μM), and continuously incubated at 37° C. for 12 h in a 5% CO2 cell incubator. The 6-well cell culture plate was removed from the cell culture incubator, the supernatant was carefully sucked up; the cells were washed three times with cold pH7.4 PBS, collected and suspended in 200 μl of binding buffer. 5 μl of Annexin V-FITC and 5 μl of propidium iodide were added in the dark, placed in the dark at room temperature for 15 min, and the apoptotic rate of the cells was detected by flow cytometry.

CD44+ cells [3] = assay: WST-8 proliferation inhibition, CD44+ cells; type: cell-based, human; details: 48 h, series of concentrations
Experimental: (§2) CD44+ cells and CD44-cells sorted from human gastric cancer cell line AGS were seeded in an amount of 5000/well to 96-well plates, and incubated for 24 h at 37° C. in a 5% CO2 incubator. Free salinomycin in a series of concentrations, SAL-SWNTs-CHI, SAL-SWNTs-CHI-HA or blank SWNTs-CHI-HA were added to, and same amount of drug-free culture medium was used as blank control. After the addition, the 96-well plates were incubated for 48 h at 37° C. in a 5% CO2 incubator. After the completion of the cell culture, the plates were taken out and the culture media in the wells were removed. After washing with sterile PBS, 100 μL of PBS and 10 μL of WST-8 reagent were added to each well, and incubation was continued for 2 hours. Optical density (OD) was measured at the wavelength of 450 nm using a microplate reader. The toxicities of various salinomycin preparations on gastric cancer stem cells were evaluated by using the percentages of surviving cells (Survival rate, %) after the addition and culture. The percentages of surviving cells were calculated according to the following formula:
(§3) Inhibition rate=1−Cell survival rate.

CD44− cells = assay: WST-8 proliferation inhibition, CD44- cells; type: cell-based, human; details: 48 h, series of concentrations
Experimental: as §2, §3

AGS cells = assay: Effect on proportion of CD44+ cells in AGS cells (flow cytometry); type: cell-based, human; details: drug concentration 1.0 μM, 48 h; blank control 5.2±0.1%
Experimental: In order to measure the effects of various salinomycin dosage forms on the expression of CD44 in AGS cells, AGS cells were seeded in 6-well plates at 3×10^5 cells/well. After incubation for 24 h, AGS cells were incubated with free mitomycin, free salinomycin, SAL-SWNTs-CHI or SAL-SWNTs-CHI-HA (drug concentration was 1.0 μM) separately at 37° C. for 48 h. The blank medium was used as control. After incubation, the cells were washed three times with cold PBS, digested with 0.25% trypsin, and then pipetted with PBS to make cell suspensions. The expression rates of CD44 in AGS cells were detected by flow cytometry.

[4] = tested on: gastric cancer stem cell spheres; assay: Inhibition of growth of gastric cancer stem cell spheres; type: cell-based, human; details: salinomycin 5 μM, 6th day after administration; PBS 433.3±6.0%
Experimental: as §1
To the wells of 96-well culture plate, PBS, free salinomycin, SAL-SWNTs-CHI or SAL-SWNTs-CHI-HA were added, respectively, and the concentration of salinomycin in the above preparations was 5 μM. After addition, the 96-well plate was placed in a 37° C., 5% CO2 incubator and incubated continuously. The growth of tumor spheres under these conditions was observed. […] The formula for calculating the inhibition rate of tumor sphere growth was as follows: […], in which dmax was maximum diameter, dmin was minimum diameter; tumor sphere volume change rate %=(Vdayi/Vday0) 100%, in which Vdayi represents the volume of stem cell spheres on the i^th day after administration, and Vday0 represents the volume of stem cell spheres before administration.

[5] = cited from earlier work
breast cancer stem cells = details: cited from earlier work

Compound	FITC fluorescence in stem cell spheres (penetration) [1]	Apoptotic rate of gastric cancer stem cells (CD44+ cells [2])	Necrosis rate of gastric cancer stem cells (CD44+ cells [2])	Inhibitory effect on proliferation of CD44+ cells (CD44+ cells [3])	Inhibitory effect on proliferation of CD44− cells (CD44− cells)	Proportion of CD44+ cells after treatment (AGS cells)	Volume change rate of cell spheres [4]	Water solubility [5]	Effect of killing breast cancer stem cells relative to paclitaxel (breast cancer stem cells)
fluorescein isothiocyanate [free FITC]	weakest fluorescence intensity								
CC[C@@H](C(=O)[C@@H](C)[C@@H](O)[C@H](C)[C@@H]1O[C@@H]([C@@H](CC)C(=O)O)CC[C@@H]1C)[C@H]1O[C@]2(C=C[C@@H](O)[C@]3(CC[C@@](C)([C@H]4CC[C@](O)(CC)[C@H](C)O4)O3)O2)[C@H](C)C[C@@H]1C [Salinomycin]		34.8%	4.3%	significant inhibitory effects	strongest inhibitory effect	1.75±0.21%	179.5±5.8%	poor	more than 100 times
CO[C@@]12[C@H](COC(N)=O)C3=C(C(=O)C(C)=C(N)C3=O)N1C[C@@H]1N[C@@H]12 [mitomycin C]						74.9±1.0%			
